# Source: patent publication US20250381276A1, “SMALL MOLECULE CONJUGATED CHARGE-ALTERING RELEASABLE TRANSPORTERS FOR NUCLEIC ACID DELIVERY” (The Board of Trustees of the Leland Stanford Junior …, priority 2022, published 2025)
# Test system: peripheral blood lymphocytes
# Assay: Lymphocyte depletion assay (peripheral blood T and B cells)
# Assay type: in vivo, BALB/c mice
# Conditions: single i.v. dose, 24 hours vs baseline; FTY720 12.9 μg, mRNA 7.5 μg/mouse
# Protocol: For in vivo administration, CART formulations were prepared adding 18.75 μg of mRNA (18.75 uL of a 1 mg/mL stock) to 205 uL of PBS (pH 5.5) and to this 26.22 uL of CART (from a 2 mmol/L stock in DMSO) were added and mixed for 20 seconds. A total of 100 uL of this formulation was administered i.v. into the tail vein of each mouse, injecting two mice at a time per each treatment group and resulting in a final mRNA dose of 7.5 ug/mouse. CART formulations were injected immediately after mixing (within 20 s).
# Blood was drawn from the submandibular vein of the mice immediately before and 24 hours after treatment with Fluc mRNA-CART complexes prepared and administered as above. In both cases approximately 1 mL of venous blood was collected per mouse into FACS tubes pre-filled with 500 μL of Ca^2+-EDTA. […]
# One of the potential benefits of functionalizing an mRNA delivery vehicle with a small molecule is to exploit the biological properties of the small molecule for therapeutic purposes. […] Before treatment, mice were bled to measure the baseline levels of circulating T cells (CD3+) and B cells (B220+) calculated through flow cytometry as a percentage of the total peripheral blood lymphocytes. The mice were then bled 24 hours after treatment and the levels of peripheral T and B lymphocytes were measured again (FIG. 5). […]
smiles,measurement,value
"CCCCCCCCc1ccc(CCC(N)(CO)CO)cc1 [FTY720, fingolimod]",Reduction in the percentage of circulating T cells (CD3+),84%
